Laboratory results: US20220290237A1, “METHOD FOR PREDICTING THE RESPONSE OF ANTIPSYCHOTIC DRUGS” (INSERM (INSTITUT NATIONAL DE LA SANTÉ ET DE LA RECHERCHE …, priority 2019, published 2022)

System: total RNA from blood samples
Test: qRT-PCR replication of expression changes after amisulpride treatment in 24 independent subjects
Format: in vivo, human
Details: 4 weeks amisulpride
Method: Total RNA was extracted from blood samples, collected in PAXgene Blood RNA tubes, with the PAXgene Blood miRNA Kit (QIAGEN GmbH, Hilden, Germany) using a standard protocol on QlAcube robot (QIAGEN). A DNase digestion procedure was added after extraction. Total RNA was purified using the RNA Clean & Concentrator™-5 kit following the manufacturer's instructions (Zymo Research Corp., Irvine, USA). RNA quantification was performed on a NanoDrop™ 8000 spectrophotometer, in duplicate. The quality and integrity of the RNA samples were assessed using an Agilent Bioanalyzer 2100 and the RNA6000 Nano Labchip kit (Agilent Technologies). Only samples with an RNA integrity number (RIN) higher than 7 were selected. Three hundred and seventy-six RNA samples fulfilled quality control criteria for RNA-seq analyses, corresponding to two RNA samples (one at inclusion and one after 4 weeks of treatment) for 188 subjects. Forty-eight additional RNAs were available for replication studies, in 24 independent subjects.
Five-hundred nanograms of total RNA was reverse-transcribed using the High-Capacity cDNA Reverse Transcription kit following standard protocol (Thermo Fisher Scientific, Waltham, Mass., U.S.A.). Mixtures of the cDNAs and the TaqMan Universal PCR Master Mix were further loaded in the 384-well low density TaqMan array microfluidic cards (Thermo Fisher Scientific). Real-time PCR reactions were then carried out in an ABI Prism 7900HT sequence detection system (Thermo Fisher Scientific) using manufacturer's instructions. Each assay was carried out in duplicate and threshold cycle (Ct) values were automatically calculated by the SDS 2.2 software (Thermo Fisher Scientific), after having manually set the analysis threshold. Two reference genes (18S, and GUSB) with various expression levels were included in the analyses to perform a relative RNA quantification, using the most suitable reference gene.
For the qRT-PCR analysis, ΔCt values of each gene of interest were calculated before and after treatment and then normalized by subtracting the ΔCt values of the reference gene to generate ΔΔCt values. To select genes with significant expression changes after treatment, the medians of fold changes (2-ΔΔCt) were subsequently compared to a reference (Me=1) using Wilcoxon Rank Sum Test, and an adjusted p-values below 0.1 was considered to be significant.
To validate these DEGs, we used qRT-PCR in 24 independent subjects from the OPTiMiSE cohort, who were not included in the RNA-seq analyses and with a more than 20% improvement in total PANSS score after treatment (FIG. 1). We selected only brain-expressed protein-coding genes that were differentially expressed after treatment in good responders only. In addition, we restricted our selection to genes for which the expression change was correlated with symptom improvement (Table 1). […] In addition, two genes (P4HA2 and TRPC6) were removed from replication studies, because they were not detectable by qRT-PCR. Eleven genes were thus tested in the replication sample.

## CCN1CCCC1CNC(=O)c1cc(S(=O)(=O)CC)c(N)cc1OC (centres unmarked) [amisulpride, 4-amino-N-((1-ethyl-2-pyrrolidinyl)methyl)-5-(etgylsulfonyl)-2-methoxybenzamide]
ACSL5, replication sample (n = 24)
  FC, fold-change at week 4 relative to the expression level at inclusion: ACSL5: 1.06
ALPL, replication sample (n = 24)
  FC, fold-change at week 4 relative to the expression level at inclusion: ALPL: 0.77
CA4, replication sample (n = 24)
  FC, fold-change at week 4 relative to the expression level at inclusion: CA4: 0.71
DGAT2, replication sample (n = 24)
  FC, fold-change at week 4 relative to the expression level at inclusion: DGAT2: 0.73
DHRS13, replication sample (n = 24)
  FC, fold-change at week 4 relative to the expression level at inclusion: DHRS13: 0.82
GALNT14, replication sample (n = 24)
  FC, fold-change at week 4 relative to the expression level at inclusion: GALNT14: 0.76
HOMER3, replication sample (n = 24)
  FC, fold-change at week 4 relative to the expression level at inclusion: HOMER3: 0.84
KAZN, replication sample (n = 24)
  FC, fold-change at week 4 relative to the expression level at inclusion: KAZN: 0.67
KIAA0319, replication sample (n = 24)
  FC, fold-change at week 4 relative to the expression level at inclusion: KIAA0319: 0.77
SLC4A4, replication sample (n = 24)
  FC, fold-change at week 4 relative to the expression level at inclusion: SLC4A4: 0.84
WLS, replication sample (n = 24)
  FC, fold-change at week 4 relative to the expression level at inclusion: WLS: 0.85
